Reference: article PMC5915154, “Aloe-emodin as drug candidate for cancer therapy” (Oncotarget, 2018)

Key:
[1] = system: HCT116 (p53+/+) colon cancer cells; test: Resazurin reduction assay, HCT116 (p53+/+); type: cell-based; conditions: Homo sapiens, HCT-116, 72 h
From the text: (§1) The cell lines used in the present work, their origins and maintenance conditions were previously reported. In brief, drug-sensitive CCRF-CEM and multidrug resistant P-glycoprotein-over-expressing CEM/ADR5000 leukemia cells, MDA-MB-231-pcDNA3 breast cancer cells and their transfectant subline MDA-MB-231-BCRP clone 23, HCT116 (p53^+/+) colon cancer cells and its knockout clone HCT116 (p53^-/-), U87.MG glioblastoma multiform cells and their transfectant subline U87.MGΔEGFR as well as HEK293 human embryonic kidney cells transfected with or without a cDNA for ABCB5 were used. The human peripheral mononuclear cells (PMNC) were isolated from fresh blood samples of a healthy donor by using Histopaque® (Sigma-Aldrich, Taufkirchen, Germany).
(§2) Resazurin reduction assay was conducted to test the cytotoxicity of the compounds. This assay is based on the reduction of resazurin to resorufin by viable cells. […] Briefly, aliquots of 0.5×10^4 adherent cells which were allowed to attach overnight and 1×10^4 suspension cells per well were seeded in 96-well-plates with or without the addition of varying concentrations of the test substance to get a total volume of 200 μL/well. After 72 h incubation and addition of resazurin (Sigma-Aldrich) for 4 h, staining was measured by an Infinite M2000 ProTM plate reader (Tecan, Germany) using an excitation wavelength of 544 nm and an emission wavelength of 590 nm. […]

[2] = system: HCT116 (p53-/-) knockout colon cancer cells; test: Resazurin reduction assay, HCT116 (p53-/-); type: cell-based, human
From the text: as §1, §2

[3] = system: MDA-MB-231-BCRP clone 23 cells; test: Resazurin reduction assay, MDA-MB-231-BCRP clone 23; type: cell-based; conditions: Homo sapiens; MDA-MB-231-BCRP clone 23, resazurin assay, 72 h
From the text: as §1, §2

HEK293-ABCB5 cells = test: Resazurin reduction assay, HEK293-ABCB5; type: cell-based; conditions: Homo sapiens, 72 h
From the text: as §1, §2

[4] = system: drug-sensitive wild-type cell lines; test: Resazurin reduction assay, range over drug-sensitive wild-type cell lines; type: cell-based; conditions: Homo sapiens
From the text: as §1, §2

CCRF-CEM cells [5] = test: Detection of reactive oxygen species (H2DCFH-DA, flow cytometry); type: cell-based, human
Protocol: 2′,7′-Dichlorofluorescin diacetate (H2DCFH-DA, Sigma-Aldrich) is a cell-permeable non-fluorescent probe used to detect cellular ROS levels. In the presence of ROS, the compound is de-esterified intracellularly and converts into the highly fluorescent 2′,7′-dichlorofluorescein upon oxidation. Thus, it can be measured by flow cytometry. CCRF-CEM cells were re-suspended in PBS and incubated for 30 min withH2DCFH-DA at a concentration of 2 μM. After washing with PBS, the cells were treated with DMSO as negative control, H2O2 and doxorubicin as positive controls or varying concentrations of Aloe-emodin (0.5-, 1-, 2- and 4-fold IC50) for 1 h. The results were assessed by a BD Accuri™ C6 flow cytometer (Becton Dickinson) using FL-1 the channel (488 nm excitation). For each sample, 10^4 cells were counted. The protocol has been recently reported by us.

CCRF-CEM cells [6] = test: Cell cycle analysis (PI, flow cytometry); type: cell-based, human; conditions: 4-fold IC50, 24 h
Protocol: The cells were collected, washed in PBS and fixed with ice-cold 96% ethanol. After washing the cells with PBS again, the cells were dissolved in PBS and stained with propidium iodide (PI, Sigma-Aldrich) at a final concentration of 50 μg/mL for 15 min in the dark. Cell cycle analyses were performed using a BD Accuri™ C6 Flow cytometer (Becton-Dickinson, Heidelberg, Germany) at 488 nm excitation wavelength, and emission was measured by a 610/20 nm band pass filter. All experiments were performed at least in triplicates. The protocol has been recently reported by us.

CCRF-CEM cells [7] = test: Mitochondrial membrane potential (JC-1, flow cytometry); type: cell-based, human; conditions: CCRF-CEM, 2- and 4-fold IC50, 24 and 48 h
From the text: The JC-1 Mitochondrial Membrane Potential Assay Kit (Cayman Chemical, Ann Arbor, MI, USA) was applied for the detection of MMP by flow cytometry according to the manufacturer’s instructions. The cationic dye, 5, 5’, 6, 6’- tetrachloro- 1, 1’, 3, 3’- tetraethylbenzimidazolylcarbocyanine iodide (JC-1) enters the mitochondria and changes its fluorescent properties based on the aggregation of the probe. In healthy cells having high MMP, JC-1 forms complexes known as J-aggregates with intense red fluorescence. On the other hand, in cells with low MMP, JC-1 remains in its monomeric form showing green fluorescence. […] A LSR-Fortessa FACS analyzer (Becton–Dickinson) was used to detect the J-aggregate form of JC-1 with an excitation wavelength of 535 ± 20 nm and an emission wavelength of 590 ± 20 nm as well as the monomeric form of JC-1 at excitation and emission wavelengths of 485 and 535 nm, respectively. The results were analyzed by the FlowJo software (Celeza, Olten, Switzerland). 2×10^4 cells were counted for each experiment which were repeated in triplicate.

## O=C1c2cccc(O)c2C(=O)c2c(O)cc(CO)cc21 [Aloe-emodin]
[1]
  IC50: 16.5 µM
[2]; HCT116 (p53-/-) knockout cells vs HCT116 (p53+/+)
  degree of resistance (collateral sensitivity): 0.68 fold
[2]; Homo sapiens, HCT-116, HCT116(p53-/-), resazurin assay, 72 h
  IC50: 11.2 µM
[3]
  IC50: 26.9 µM
HEK293-ABCB5 cells
  IC50: 25.9 µM
[4]; drug-sensitive wild-type cell lines HCT116(p53+/+), U87.MG, MDA-MB-231-pcDNA, HEK293
  IC50: 16.5 to 22.3 µM
[4]; drug-sensitive wild-type cell lines incl. CCRF-CEM (abstract)
  IC50: 9.87 to 22.3 µM
CCRF-CEM cells [5]; 0.5-, 1-, 2- or 4-fold IC50, 1 h, dose-dependent
  ROS production, fold changes: ≥ 1.5 fold
CCRF-CEM cells [5]; 1 h, vs doxorubicin (1 μM) or H2O2 (250 μM)
  ROS generation compared with positive controls: even higher ROS generation than doxorubicin
CCRF-CEM cells [6]
  cell cycle arrest: clear arrest in the S-phase
CCRF-CEM cells [7]
  MMP depolarization (JC-1 fluorescence): shift from red to green fluorescence
